{"source": "patent US8431536B2", "about": "“Target for breast cancer therapy and/or diagnosis” (The University of Queensland, priority 2007, dated 2013)", "system": "MCF-7 breast cancer cells", "assay": "MTS proliferation/viability assay in MCF-7 breast cancer cells", "type": "cell-based", "details": "50 μM, treated on plating in 10% foetal bovine serum, MTS 72 hrs after plating, p<0.05 vs methanol control (FIG. 8)", "protocol": "FIG. 6 The effect of siRNA to CRACM1 (96 hrs) on the viability of MCF-7 cells, as measured by an MTS assay for cellular proliferation. Normalized MTS absorbance (proliferation/viability) of the mean of 3 independent experiments in MCF-7 breast cancer cells (±SEM). For each experiment absorbance was assessed in quadruplicate. Experiment was performed in 1% foetal bovine serum (p<0.05).\nFIG. 8 MTS assay of MCF-7 cells treated with 50 μM 2-APB. * p<0.05 compared with respective methanol control. Error bars=SD. Cells were treated with 2-APB on plating in 10% foetal bovine serum. MTS assay was performed 72 hrs after plating.", "data": [{"smiles": "NCCOB(c1ccccc1)c1ccccc1", "note": "[2-APB, 2-aminoethoxydiphenyl borate]", "values": [{"measurement": "proliferation/viability of MCF-7 cells (MTS assay)", "result": "inhibits the proliferation/viability of MCF-7 breast"}]}]}
